Data as given in patent US20060069132A1, “Azolecarboxamide herbicides” (priority 2004, published 2006).
Like-named read-outs stand apart in the source and are kept apart here.

Legend:
Surinam grass [1] = assay: Test B pre-/postemergence herbicide test; format: in vivo, Urochloa decumbens
How it was run: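 Pre: seeds sown, then sprayed. Post: 1–4-leaf plants (2–18 cm) sprayed at the same time. Paddy: flooded, treated at 2-leaf stage. Formulation: non-phytotoxic solvent with surfactant. Greenhouse 13–15 days; visual 0–100 score relative to controls.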

common ragweed = assay: Test C pre-/postemergence herbicide test; format: in vivo, Ambrosia elatior; parameters: key to Plant response rating, Ragweed: 0 = no effect, 100 = complete control; settings: for Plant response rating (0 = no effect, 100 = complete control), Ragweed: 62 g ai/ha; for Plant response rating (0 = no effect, 100 = complete control), Ragweed / Plant response rating, Ragweed: preemergence
How it was run: (§1)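 Preemergence: seeds planted and treated with compound in non-phytotoxic solvent with surfactant; postemergence: plants at 2 to 18 cm (1- to 4-leaf stage) sprayed likewise. Kept in greenhouse 12 to 14 days, then visually rated against controls, 0 (no effect) to 100 (complete control).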

goosegrass = assay: Test C pre-/postemergence herbicide test; format: in vivo, Eleusine indica; settings: for Plant response rating (0 = no effect, 100 = complete control), Goosegrass: 62 g ai/ha; for Plant response rating (0 = no effect, 100 = complete control), Goosegrass / Plant response rating, Goosegrass: preemergence
How it was run: as §1

wheat = assay: Test B postemergence herbicide test; format: in vivo, Triticum aestivum; settings: Postemergence, scale 0 (no effect) to 100 (complete control); for Plant response rating, Wheat: 500 g ai/ha, visual rating after 13 to 15 days
How it was run: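 Greenhouse test; postemergence application to plants at 1–4 leaves (2–18 cm); paddy species at 2 leaves; evaluated visually vs controls at 13–15 days; scale 0–100 (100 = complete control).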

eastern black nightshade = assay: Test C pre-/postemergence herbicide test; format: in vivo, Solanum ptycanthum; settings: for Plant response rating (0 = no effect, 100 = complete control), Nightshade: 62 g ai/ha; for Plant response rating (0 = no effect, 100 = complete control), Nightshade / Plant response rating, Nightshade: preemergence
How it was run: as §1

Surinam grass [2] = assay: Test C pre-/postemergence herbicide test; format: in vivo, Urochloa decumbens; settings: for Plant response rating (0 = no effect, 100 = complete control), Surinam Grass: 62 g ai/ha; for Plant response rating (0 = no effect, 100 = complete control), Surinam Grass / Plant response rating, Surinam Grass: preemergence
How it was run: as §1

redroot pigweed = assay: Test A pre-/postemergence herbicide test; format: in vivo, Amaranthus retroflexus; settings: for pest or weed control at 500 g/ha / pest or weed control at 2000 g/ha: Amaranthus retroflexus, 240 h
How it was run: (§2)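 Sandy loam soil given preemergence directed spray; plants at 2 to 10 cm, one- to two-leaf stage, sprayed to runoff postemergence, compounds in non-phytotoxic solvent with surfactant. Injury rated visually versus untreated controls after about ten greenhouse days, 0 (no effect) to 100 (complete control); dash means not tested.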

morningglory = assay: Test A pre-/postemergence herbicide test; format: in vivo, Ipomoea spp.; settings: for pest or weed control at 500 g/ha / pest or weed control at 2000 g/ha: Ipomoea, 240 h
How it was run: as §2

[3] = Preemergence, 500 g ai/ha, scale 0 to 100, 0 no effect, 100 complete control
[4] = 125 g ai/ha, scale 0 (no effect) to 100 (complete control), visual, 12 to 14 days
[5] = 250 g ai/ha, scale 0 to 100 (0 no effect, 100 complete control), visual, 12 to 14 days
[6] = Postemergence, 500 g ai/ha, 0 to 100 scale, 0 no effect, 100 complete control
[7] = Postemergence, 2000 g ai/ha, 0 to 100 scale, 0 no effect, 100 complete control
[8] = Preemergence, 500 g ai/ha, visual rating, 0 to 100 scale (0 no effect, 100 complete control)
[9] = Preemergence, 2000 g ai/ha, 0 to 100 scale, 0 no effect, 100 complete control

## CCn1nc(C(C)(C)C)cc1C(=O)Nc1cc(C(=O)N(C)C)ccc1F [Compound 6, N-[5-[(dimethylamino)carbonyl]-2-fluorophenyl]-3-(1,1-dimethylethyl)-1-ethyl-1H-pyrazole-5-carboxamide]
Surinam grass [1]; Urochloa decumbens, post-emergence, Postemergence, 125 g ai/ha, scale 0 (no effect) to 100 (complete control), read-out: Surinam Grass plant response rating
  pest or weed control at 125 g/ha: 10%
Surinam grass [1]; Urochloa decumbens, post-emergence, Postemergence, 500 g ai/ha, visual rating after 13 to 15 days, scale 0 (no effect) to 100 (complete control), read-out: Plant response rating, Surinam Grass
  pest or weed control at 500 g/ha: 60%
Surinam grass [1]; Urochloa decumbens, pre-emergence, Preemergence, 500 g ai/ha, scale 0 to 100, read-out: Surinam Grass plant response rating
  pest or weed control at 500 g/ha: 100%
Common ragweed
  Plant response rating (0 = no effect, 100 = complete control), Ragweed: 100
Common ragweed; Ambrosia artemisiifolia, pre-emergence, 250 g ai/ha, scale 0 to 100 (0 no effect, 100 complete control), visual, 12 to 14 days, read-out: Plant response rating, Ragweed
  pest or weed control at 250 g/ha: 100%
Common ragweed; [3]
  Ragweed plant response rating: 100
goosegrass
  Plant response rating (0 = no effect, 100 = complete control), Goosegrass: 85
goosegrass; Eleusine indica, pre-emergence, 312 h, 125 g ai/ha, scale 0-100, read-out: Plant response rating, Goosegrass
  pest or weed control at 125 g/ha: 100%
goosegrass; Eleusine indica, pre-emergence, 312 h, 250 g ai/ha, scale 0 to 100 (0 no effect, 100 complete control), visual, 12 to 14 days, read-out: Plant response rating, Goosegrass
  pest or weed control at 250 g/ha: 100%
goosegrass; [3]
  Goosegrass plant response rating: 100
wheat
  Plant response rating, Wheat: 40
wheat; Triticum aestivum, post-emergence, 336 h, 125 g ai/ha, read-out: Wheat plant response rating
  plant injury at 125 g/ha: 0%
Eastern black nightshade
  Plant response rating (0 = no effect, 100 = complete control), Nightshade: 100
Eastern black nightshade; [3]
  Nightshade plant response rating: 100
Eastern black nightshade; pre-emergence, 250 g ai/ha, scale 0 to 100 (0 no effect, 100 complete control), visual, 12 to 14 days, read-out: Plant response rating, Nightshade
  pest or weed control at 250 g/ha: 100%
Surinam grass [2]
  Plant response rating (0 = no effect, 100 = complete control), Surinam Grass: 85
Surinam grass [2]; [3]
  Surinam Grass plant response rating: 100
Surinam grass [2]; Urochloa decumbens, pre-emergence, 312 h, 250 g ai/ha, scale 0 to 100 (0 no effect, 100 complete control), visual, 12 to 14 days, read-out: Plant response rating, Surinam Grass
  pest or weed control at 250 g/ha: 100%
Redroot pigweed; post-emergence, Postemergence, 500 g ai/ha, 0 to 100 scale, 0 no effect, 100 complete control, read-out: Plant response rating, Pigweed
  pest or weed control at 500 g/ha: 100%
Redroot pigweed; post-emergence, Postemergence, 2000 g ai/ha, 0 to 100 scale, 0 no effect, 100 complete control, read-out: Plant response rating, Pigweed
  pest or weed control at 2000 g/ha: 100%
Redroot pigweed; pre-emergence, Preemergence, 500 g ai/ha, visual rating, 0 to 100 scale (0 no effect, 100 complete control), read-out: Pigweed plant response rating
  pest or weed control at 500 g/ha: 100%
Redroot pigweed; pre-emergence, Preemergence, 2000 g ai/ha, 0 to 100 scale, 0 no effect, 100 complete control, read-out: Pigweed plant response rating
  pest or weed control at 2000 g/ha: 100%
morningglory; post-emergence, Postemergence, 500 g ai/ha, 0 to 100 scale, 0 no effect, 100 complete control, read-out: Plant response rating, Morningglory
  pest or weed control at 500 g/ha: 10%
morningglory; post-emergence, Postemergence, 2000 g ai/ha, 0 to 100 scale, 0 no effect, 100 complete control, read-out: Plant response rating, Morningglory
  pest or weed control at 2000 g/ha: 30%
morningglory; pre-emergence, Preemergence, 500 g ai/ha, visual rating, 0 to 100 scale (0 no effect, 100 complete control), read-out: Morningglory plant response rating
  pest or weed control at 500 g/ha: 45%
morningglory; pre-emergence, Preemergence, 2000 g ai/ha, 0 to 100 scale, 0 no effect, 100 complete control, read-out: Morningglory plant response rating
  pest or weed control at 2000 g/ha: 80%

## CCCCn1nc(C(C)(C)C)cc1C(=O)Nc1cccc(C(=O)NCC)c1 [Compound 41]
Surinam grass [1]; Postemergence, 500 g ai/ha, visual rating after 13 to 15 days, scale 0 (no effect) to 100 (complete control)
  Plant response rating, Surinam Grass: 20
Surinam grass [1]; Preemergence, 500 g ai/ha, scale 0 to 100
  Surinam Grass plant response rating: 60
Surinam grass [1]; preemergence, 125 g ai/ha, 0 to 100 scale, 0 is no effect, 100 is complete control
  Plant response rating, Surinam Grass: 10
Common ragweed; 31 g ai/ha, scale 0 to 100
  Plant response rating, Ragweed: 0
Common ragweed
  Plant response rating (0 = no effect, 100 = complete control), Ragweed: 0
Common ragweed; [4]
  Plant response rating, Ragweed: 0
Common ragweed; [5]
  Plant response rating, Ragweed: 10
goosegrass; 31 g ai/ha, scale 0 to 100
  Plant response rating, Goosegrass: 10
goosegrass
  Plant response rating (0 = no effect, 100 = complete control), Goosegrass: 20
goosegrass; [4]
  Plant response rating, Goosegrass: 30
goosegrass; [5]
  Plant response rating, Goosegrass: 40
wheat
  Plant response rating, Wheat: 10
Eastern black nightshade; 31 g ai/ha, scale 0 to 100
  Plant response rating, Nightshade: 0
Eastern black nightshade
  Plant response rating (0 = no effect, 100 = complete control), Nightshade: 0
Eastern black nightshade; [4]
  Plant response rating, Nightshade: 10
Eastern black nightshade; [5]
  Plant response rating, Nightshade: 90
Surinam grass [2]; 31 g ai/ha, scale 0 to 100
  Plant response rating, Surinam Grass: 10
Surinam grass [2]
  Plant response rating (0 = no effect, 100 = complete control), Surinam Grass: 20
Surinam grass [2]; [4]
  Plant response rating, Surinam Grass: 20
Surinam grass [2]; [5]
  Plant response rating, Surinam Grass: 20
Redroot pigweed; [6]
  Plant response rating, Pigweed: 40
Redroot pigweed; [7]
  Plant response rating, Pigweed: 60
Redroot pigweed; [8]
  Pigweed plant response rating: 65
Redroot pigweed; [9]
  Pigweed plant response rating: 85
morningglory; [6]
  Plant response rating, Morningglory: 10
morningglory; [7]
  Plant response rating, Morningglory: 10
morningglory; [8]
  Morningglory plant response rating: 20
morningglory; [9]
  Morningglory plant response rating: 45
